Values after ≈ are worked out from the molar mass of the structure shown.
Legend:
Type in all cases: functional
Aspergillus fumigatus = experiment: Antifungal activity against Aspergillus fumigatus assessed as growth inhibition by microbroth dilution method
Candida parapsilosis = experiment: Antifungal activity against Candida parapsilosis assessed as growth inhibition by microbroth dilution method; details: Lodderomyces parapsilosis
Candida tropicalis = experiment: Antifungal activity against Candida tropicalis assessed as growth inhibition by microbroth dilution method
Trichophyton rubrum [1] = experiment: Antifungal activity against Trichophyton rubrum assessed as growth inhibition by microbroth dilution method
Cryptococcus neoformans = experiment: Antifungal activity against Cryptococcus neoformans assessed as growth inhibition after 72 hrs by microbroth dilution method
Kluyveromyces marxianus [2] = experiment: Antifungal activity against Candida kefyr assessed as growth inhibition by microbroth dilution method
Candida albicans [3] = experiment: Antifungal activity against Candida albicans Y0109 assessed as growth inhibition after 24 hrs by microbroth dilution method; details: Y0109, 24 h
Candida albicans [4] = experiment: Antifungal activity against Candida albicans SC5314 assessed as growth inhibition after 24 hrs by microbroth dilution method; details: SC5314, 24 h
Trichophyton rubrum [5] = experiment: Ratio of fluconazole MIC80 to compound MIC80 against Trichophyton rubrum
Kluyveromyces marxianus [6] = experiment: Ratio of fluconazole MIC80 to compound MIC80 against Candida kefyr
Candida albicans [7] = experiment: Ratio of fluconazole MIC80 to compound MIC80 against Candida albicans SC5314

Compound	MIC80 (Aspergillus fumigatus) [µg/mL]	MIC80 (Candida parapsilosis) [µg/mL]	MIC80 (Candida tropicalis) [µg/mL]	MIC80 (Trichophyton rubrum [1]) [µg/mL]	MIC80 (Cryptococcus neoformans) [µg/mL]	MIC80 (Kluyveromyces marxianus [2]) [µg/mL]	MIC80 (Candida albicans [3]) [µg/mL]	MIC80 (Candida albicans [4]) [µg/mL]	Ratio (Trichophyton rubrum [5])	Ratio (Kluyveromyces marxianus [6])	Ratio (Candida albicans [7])
Cc1ccccc1Cn1cc(CN(C)CC(O)(Cn2cncn2)c2ccc(F)cc2F)nn1 (stereo not drawn)	> 64	0.0625	0.25	4	0.25 (≈ 0.551 µM)	0.25	0.25 (≈ 0.551 µM)	0.25 (≈ 0.551 µM)	–	–	–
CN(Cc1cn(Cc2ccc(Cl)cc2)nn1)CC(O)(Cn1cncn1)c1ccc(F)cc1F (stereo not drawn)	> 64	0.25	1	4	1 (≈ 2.11 µM)	0.25	< 0.125	0.25 (≈ 0.528 µM)	–	–	–
CN(C/C=C/C#CC(C)(C)C)Cc1cccc2ccccc12 [TERBINAFINE]	0.25	< 0.125	< 0.125	< 0.125	8 (≈ 27.5 µM)	0.0625	2 (≈ 6.86 µM)	16 (≈ 54.9 µM)	–	–	–
CN(Cc1cn(Cc2cccc(C#N)c2)nn1)CC(O)(Cn1cncn1)c1ccc(F)cc1F (stereo not drawn)	> 64	0.25	1	1	4 (≈ 8.61 µM)	1	0.5 (≈ 1.08 µM)	1 (≈ 2.15 µM)	–	–	–
OC(Cn1cncn1)(Cn1cncn1)c1ccc(F)cc1F [FLUCONAZOLE]	> 64	< 0.125	< 0.125	2	8 (≈ 26.1 µM)	1	0.5 (≈ 1.63 µM)	0.5 (≈ 1.63 µM)	–	–	–
CCC(C)n1ncn(-c2ccc(N3CCN(c4ccc(OCC5COC(Cn6cncn6)(c6ccc(Cl)cc6Cl)O5)cc4)CC3)cc2)c1=O (stereo not drawn) [ITRACONAZOLE]	2	0.0625	< 0.0625	0.0625	0.125 (≈ 0.177 µM)	0.0625	0.0625 (≈ 0.0886 µM)	< 0.0625	–	–	–
C[C@@H]1[C@H](O)[C@@H](C)/C=C/C=C/C=C/C=C/C=C/C=C/C=C/[C@H](O[C@@H]2O[C@H](C)[C@@H](O)[C@H](N)[C@@H]2O)C[C@@H]2O[C@](O)(C[C@@H](O)C[C@@H](O)[C@H](O)CC[C@@H](O)C[C@@H](O)CC(=O)O[C@H]1C)C[C@H](O)[C@H]2C(=O)O [AMPHOTERICIN B]	32	1	0.25	0.125	4 (≈ 4.33 µM)	0.25	4 (≈ 4.33 µM)	8 (≈ 8.66 µM)	–	–	–
C[C@@H](c1ncncc1F)[C@](O)(Cn1cncn1)c1ccc(F)cc1F [VORICONAZOLE]	< 0.125	0.25	< 0.125	< 0.125	< 0.125	0.0039	< 0.125	32 (≈ 91.6 µM)	–	–	–
Cc1ccc(Cn2cc(CN(C)CC(O)(Cn3cncn3)c3ccc(F)cc3F)nn2)cc1 (stereo not drawn)	> 64	0.0625	1	1	1 (≈ 2.21 µM)	0.25	< 0.125	0.25 (≈ 0.551 µM)	–	–	–
CC(=O)N1CCN(c2ccc(OCC3COC(Cn4ccnc4)(c4ccc(Cl)cc4Cl)O3)cc2)CC1 (stereo not drawn) [KETOCONAZOLE]	0.125	< 0.125	< 0.125	< 0.125	0.5 (≈ 0.941 µM)	0.0625	< 0.125	< 0.125	–	–	–
CN(Cc1cn(Cc2ccc(C#N)cc2)nn1)CC(O)(Cn1cncn1)c1ccc(F)cc1F (stereo not drawn)	> 64	0.0156	0.0625	0.0625	0.25 (≈ 0.538 µM)	0.0625	< 0.0125	0.0625 (≈ 0.135 µM)	32	16	8
CN(Cc1cn(Cc2ccccc2Br)nn1)CC(O)(Cn1cncn1)c1ccc(F)cc1F (stereo not drawn)	> 64	0.25	0.25	0.25	0.25 (≈ 0.482 µM)	0.0625	0.25 (≈ 0.482 µM)	0.25 (≈ 0.482 µM)	–	–	–
CN(Cc1cn(Cc2ccccc2Cl)nn1)CC(O)(Cn1cncn1)c1ccc(F)cc1F (stereo not drawn)	> 64	0.25	1	4	0.25 (≈ 0.528 µM)	16	0.25 (≈ 0.528 µM)	0.25 (≈ 0.528 µM)	–	–	–
CN(Cc1cn(Cc2cccc(F)c2)nn1)CC(O)(Cn1cncn1)c1ccc(F)cc1F (stereo not drawn)	> 64	0.5	0.5	16	2 (≈ 4.37 µM)	64	0.25 (≈ 0.546 µM)	0.25 (≈ 0.546 µM)	–	–	–
CN(Cc1cn(Cc2ccccc2C#N)nn1)CC(O)(Cn1cncn1)c1ccc(F)cc1F (stereo not drawn)	> 64	0.0625	0.25	1	0.25 (≈ 0.538 µM)	0.25	< 0.125	0.25 (≈ 0.538 µM)	–	–	–
CN(Cc1cn(Cc2ccc([N+](=O)[O-])cc2)nn1)CC(O)(Cn1cncn1)c1ccc(F)cc1F (stereo not drawn)	> 64	0.25	0.25	1	0.25 (≈ 0.516 µM)	0.25	0.25 (≈ 0.516 µM)	0.25 (≈ 0.516 µM)	–	–	–
CN(Cc1cn(Cc2cccc([N+](=O)[O-])c2)nn1)CC(O)(Cn1cncn1)c1ccc(F)cc1F (stereo not drawn)	> 64	0.0625	0.0625	0.0625	0.25 (≈ 0.516 µM)	0.0156	< 0.125	0.0156 (≈ 0.0322 µM)	–	64	32
CN(Cc1cn(Cc2ccc(F)cc2)nn1)CC(O)(Cn1cncn1)c1ccc(F)cc1F (stereo not drawn)	> 64	0.25	0.25	4	1 (≈ 2.19 µM)	16	0.5 (≈ 1.09 µM)	1 (≈ 2.19 µM)	–	–	–
CN(Cc1cn(Cc2ccccc2[N+](=O)[O-])nn1)CC(O)(Cn1cncn1)c1ccc(F)cc1F (stereo not drawn)	> 64	0.25	1	4	1 (≈ 2.06 µM)	0.25	< 0.125	0.25 (≈ 0.516 µM)	–	–	–
CN(Cc1cn(Cc2cccc(Br)c2)nn1)CC(O)(Cn1cncn1)c1ccc(F)cc1F (stereo not drawn)	> 64	0.0625	0.25	1	0.25 (≈ 0.482 µM)	0.25	< 0.125	0.25 (≈ 0.482 µM)	–	–	–
CN(Cc1cn(Cc2ccc(Br)cc2)nn1)CC(O)(Cn1cncn1)c1ccc(F)cc1F (stereo not drawn)	> 64	0.25	0.25	4	1 (≈ 1.93 µM)	1	< 0.125	0.25 (≈ 0.482 µM)	–	–	–

Reference: ChEMBL document CHEMBL3217508, “Synthesis and antifungal activity of the novel triazole compounds” (2013)
